The values that follow are results of earlier work, collected in US12233067B2, “Topical treatment of vitiligo by a JAK inhibitor” (Incyte Corporation, priority 2019, dated 2025).

In series [1] the test system is patient with both alopecia areata and vitiligo. As to conditions: oral 20 mg BID for 20 weeks.
In series [2] the test system is patient with widespread and progressive vitiligo. As to conditions: oral 5 mg QD; after 5 months of treatment.

Consider `N#CC[C@H](C1CCCC1)n1cc(-c2ncnc3[nH]ccc23)cn1` [ruxolitinib, (R)-3-(4-(7H-pyrrolo[2,3-d]pyrimidin-4-yl)-1H-pyrazol-1-yl)-3-cyclopentylpropanenitrile], for which the clinical outcome in series [1] is recorded as “hair regrowth as well as repigmentation of areas affected with vitiligo”.
With `C[C@@H]1CCN(C(=O)CC#N)C[C@@H]1N(C)c1ncnc2[nH]ccc12` [tofacitinib], the clinical outcome in series [2] is recorded as “near complete repigmentation”.
